Reference: patent US20260234164A1, “BIPHENYL COMPOUND AS IMMUNOMODULATOR, PREPARATION METHOD THEREFOR AND USE THEREOF” (SHENZHEN CHIPSCREEN BIOSCIENCES CO., LTD., priority 2021, published 2026)

target: T1, CD80/PD-L1 binding (Homo sapiens, UniProt Q9NZQ7); test: HTRF inhibition of CD80/PD-L1 binding in vitro; conditions: His-CD80 100 nM, PD-L1-Fc 2 nM, read-out: IC50 inhibiting CD80/PD-L1 binding in vitro
T1 construct: purchased Sino Biological Inc. 10084-H02H-100 (PD-L1-Fc); 10698-H08H-100 (His-CD80)
T1 sequence (Q9NZQ7 19-239 limits assumed): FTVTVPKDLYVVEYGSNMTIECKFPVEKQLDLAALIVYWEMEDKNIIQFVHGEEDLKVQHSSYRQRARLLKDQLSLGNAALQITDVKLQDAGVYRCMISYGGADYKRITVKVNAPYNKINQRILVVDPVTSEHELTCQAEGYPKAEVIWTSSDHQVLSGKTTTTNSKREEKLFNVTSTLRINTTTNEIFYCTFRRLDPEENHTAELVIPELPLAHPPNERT
Text: In addition to PD-1, PD-L1 can also exert immunosuppressive activity by binding to CD80. Similarly, in vitro experiments of binding or binding inhibition of CD80 and PD-L1 can also be measured by homogeneous time-resolved fluorescence (HTRF). When the anti-hFc-Eu^3+ antibody and anti-His-XL665 antibody were bound to the hFC tag fused to PD-L1 and the His tag fused to CD80 respectively, and excited with a 320 nm wavelength laser, the binding of PD-L1 and CD80 enabled energy to be transferred from the Eu element to the XL665 fluorescein, which was excited to emit light. When the inhibitor of the interaction between PD-L1 and CD80 was added, the combination of the two was destroyed, so that the distance between Eu and XL665 was far away, the energy cannot be transferred, and XL665 would not be excited.
Recombinant human CD80 protein with His tag (His-CD80 protein, Cat #: 10698-H08H-100), and recombinant human PD-L1-Fc fusion protein (PD-L1-Fc fusion protein, Cat #: 10084-H02H-100) were purchased from Sino Biological Inc., anti-hFc-Eu^3+ antibody and anti-His-XL665 antibody were purchased from Cisbio Company, and other related reagents such as dilution buffer (Diluent buffer 5, Cat #: 62DL5DDC), detection buffer (PPI-Europium detection buffer, Cat #: 61DB9RDF) were purchased from Cisbio Company. Fluorescence detection instrument Tecan (Spark 10 M) was purchased from Switzerland Tecan Company.
(1) Experimental preparation: The test compound was diluted with dilution buffer into different concentration gradients (the highest final concentration in 20 μL final reaction system was 10 μM), His-CD80 protein was diluted to 800 nM (the final concentration in 20 μL final reaction system was 100 nM), and the PD-L1-Fc fusion protein was diluted to 16 nM (final concentration was 2 nM). The anti-His-XL665 antibody and anti-hFc-Eu^3+ antibody were respectively diluted 20 times and 100 times using the detection buffer according to the reagent requirements.
(2) 5 μL of test compound, 2.5 μL of Hid-CD80 protein and 2.5 μL of […] solution were mixed, and incubated at room temperature for 15 min. Then the system was added with 5 μL of anti-His-XL665 antibody and 5 μL of anti-hFc-Eu^3+ antibody, incubated for another 3 h, and then detected.
(3) When detecting the reaction, a control group was provided, including a 0% inhibition positive control without adding test compounds and a 100% inhibition negative control without adding CD-80 protein. All detections were performed with duplicates.
(4) The fluorescence signal of each well was measured using a fluorescence detector Tecan (Spark 10M) at an excitation wavelength of 320 nm, and emission wavelengths of 620 nm and 665 nm, respectively. The intensity of the mutual binding of CD80 and PD-L1 referred to the ratio of fluorescence signals Em665/Em620.
(5) The binding inhibition rate of the test compound was calculated as follows: Inhibition rate (%)=[1−(Fluorescence signal ratio of detection well-fluorescence signal ratio of 100% inhibition negative control)]/(fluorescence signal ratio of 0% inhibition positive control-fluorescence signal ratio of 100% inhibition negative control)×100%. After calculating the inhibition rate on CD80/PD-L1 binding of the test compounds with different concentration gradients, the 50% inhibitory concentration (IC50) was calculated.

| Compound | IC50 |
| --- | --- |
| [2H]C([2H])([2H])OCC12CCC(CCN3CCc4c(nc(C(=O)Nc5cccc(-c6cccc(NC(=O)c7nc8c(n7C([2H])([2H])[2H])CCN(CCC79CCC(C(=O)O)(CC7)C9)C8)c6Cl)c5F)n4C([2H])([2H])[2H])C3)(CC1)C2 (single isomer, unassigned) [Compound I-7, 4-(2-(2-((2-chloro-2′-fluoro-3′-(5-(2-(4-((methoxy-d3)methyl)bicyclo[2.2.1]heptane-1-yl)ethyl)-1-(methyl-d3)-4,5,6,7-tetrahydro-1H-imidazo[4,5-c]pyridine-2-carboxamido)-[1,1′-biphenyl]-3-yl)carbamoyl)-1-(methyl-d3)-1,4,6,7-tetrahydro-5H-imidazo[4,5-c]pyridin-5-yl)ethyl)bicyclo[2.2.1]heptane-1-carboxylic acid] | 1.94 nM |
| [2H]C([2H])([2H])n1c(C(=O)Nc2cccc(-c3cccc(NC(=O)c4nc5c(n4C([2H])([2H])[2H])CCN(CCC46CCC(C(=O)O)(CC4)C6)C5)c3Cl)c2F)nc2c1CCN(CCC13CCC(COC)(CC1)C3)C2 (single isomer, unassigned) [Compound I-8, 4-(2-(2-((2-chloro-2′-fluoro-3′-(5-(2-(4-(methoxymethyl)bicyclo[2.2.1]heptane-1-yl)ethyl)-1-(methyl-d3)-4,5,6,7-tetrahydro-1H-imidazo[4,5-c]pyridine-2-carboxamido)-[1,1′-biphenyl]-3-yl)carbamoyl)-1-(methyl-d3)-1,4,6,7-tetrahydro-5H-imidazo[4,5-c]pyridin-5-yl)ethyl)bicyclo[2.2.1]heptane-1-carboxylic acid] | 1.77 nM |
| [2H]C([2H])([2H])OCC12CCC(CCN3CCc4c(nc(C(=O)Nc5cccc(-c6cccc(NC(=O)c7nc8c(n7C)CCN(CCC79CCC(C(=O)O)(CC7)C9)C8)c6C)c5Cl)n4C)C3)(CC1)C2 [Compound I-3, 4-(2-(2-((2′-chloro-3′-(5-(2-(4-((methoxy-d3)methyl)bicyclo[2.2.1]heptane-1-yl)ethyl)-1-methyl-4,5,6,7-tetrahydro-1H-imidazo[4,5-c]pyridine-2-carboxamido)-2-methyl-[1,1′-biphenyl]-3-yl)carbamoyl)-1-methyl-1,4,6,7-tetrahydro-5H-imidazo[4,5-c]pyridin-5-yl)ethyl)bicyclo[2.2.1]heptane-1-carboxylic acid] | 1.78 nM |
| [2H]C([2H])([2H])OCC12CCC(CCN3CCc4c(nc(C(=O)Nc5cccc(-c6cccc(NC(=O)c7nc8c(n7C)CCN(CCC79CCC(C(=O)O)(CC7)C9)C8)c6Cl)c5C)n4C)C3)(CC1)C2 [Compound I-4, 4-(2-(2-((2-chloro-3′-(5-(2-(4-((methoxy-d3)methyl)bicyclo[2.2.1]heptane-1-yl)ethyl)-1-methyl-4,5,6,7-tetrahydro-1H-imidazo[4,5-c]pyridine-2-carboxamido)-2′-methyl-[1,1′-biphenyl]-3-yl)carbamoyl)-1-methyl-1,4,6,7-tetrahydro-5H-imidazo[4,5-c]pyridin-5-yl)ethyl)bicyclo[2.2.1]heptane-1-carboxylic acid] | 1.75 nM |
| [2H]C([2H])([2H])OCC12CCC(CCN3CCc4c(nc(C(=O)Nc5cccc(-c6cccc(NC(=O)c7nc8c(n7C([2H])([2H])[2H])CCN(CCC79CCC(C(=O)O)(CC7)C9)C8)c6Cl)c5C)n4C([2H])([2H])[2H])C3)(CC1)C2 [Compound I-9, 4-(2-(2-((2-chloro-3′-(5-(2-(4-((methoxy-d3)methyl)bicyclo[2.2.1]heptane-1-yl)ethyl)-1-(methyl-d3)-4,5,6,7-tetrahydro-1H-imidazo[4,5-c]pyridine-2-carboxamido)-2′-methyl-[1,1′-biphenyl]-3-yl)carbamoyl)-1-(methyl-d3)-1,4,6,7-tetrahydro-5H-imidazo[4,5-c]pyridin-5-yl)ethyl)bicyclo[2.2.1]heptane-1-carboxylic acid] | 3.42 nM |

Stronger by IC50, values ahead:

| IC50 | Compound |
| --- | --- |
| 1.12 nM | [2H]C([2H])([2H])OCC12CCC(CCN3CCc4c(nc(C(=O)Nc5cccc(-c6cccc(NC(=O)c7nc8c(n7C([2H])([2H])[2H])CCN(CCC79CCC(C(=O)O)(CC7)C9)C8)c6Cl)c5Cl)n4C([2H])([2H])[2H])C3)(CC1)C2 [Compound I-5, 4-(2-(2-((2,2′-dichloro-3′-(5-(2-(4-((methoxy-d3)methyl)bicyclo[2.2.1]heptane-1-yl)ethyl)-1-(methyl-d3)-4,5,6,7-tetrahydro-1H-imidazo[4,5-c]pyridine-2-carboxamido)-[1,1′-biphenyl]-3-yl)carbamoyl)-1-(methyl-d3)-1,4,6,7-tetrahydro-5H-imidazo[4,5-c]pyridin-5-yl)ethyl)bicyclo[2.2.1]heptane-1-carboxylic acid] |
| 1.09 nM | [2H]C([2H])([2H])OCC12CCC(CCN3CCc4c(nc(C(=O)Nc5cccc(-c6cccc(NC(=O)c7nc8c(n7C)CCN(CCC79CCC(C(=O)O)(CC7)C9)C8)c6Cl)c5F)n4C)C3)(CC1)C2 (single isomer, unassigned) [Compound I-2, 4-(2-(2-((2-chloro-2′-fluoro-3′-(5-(2-(4-((methoxy-d3)methyl)bicyclo[2.2.1]heptane-1-y 1)ethyl)-1-methyl-4,5,6,7-tetrahydro-1H-imidazo[4,5-c]pyridine-2-carboxamido)-[1,1′-biphenyl]-3-yl)carbamoyl)-1-methyl-1,4,6,7-tetrahydro-5H-imidazo[4,5-c]pyridin-5-yl)ethyl)bicyclo[2.2.1]heptane-1-carboxylic acid] |
| 0.95 nM | [2H]C([2H])([2H])n1c(C(=O)Nc2cccc(-c3cccc(NC(=O)c4nc5c(n4C([2H])([2H])[2H])CCN(CCC46CCC(C(=O)O)(CC4)C6)C5)c3Cl)c2Cl)nc2c1CCN(CCC13CCC(COC)(CC1)C3)C2 [Compound I-6, 4-(2-(2-((2,2′-dichloro-3′-(5-(2-(4-((methoxy)methyl)bicyclo[2.2.1]heptane-1-yl)ethyl)-1-(methyl-d3)-4,5,6,7-tetrahydro-1H-imidazo[4,5-c]pyridine-2-carboxamido)-[1,1′-biphenyl]-3-yl)carbamoyl)-1-(methyl-d3)-1,4,6,7-tetrahydro-5H-imidazo[4,5-c]pyridin-5-yl)ethyl)bicyclo[2.2.1]heptane-1-carboxylic acid] |
| 0.58 nM | [2H]C([2H])([2H])OCC12CCC(CCN3CCc4c(nc(C(=O)Nc5cccc(-c6cccc(NC(=O)c7nc8c(n7C)CCN(CCC79CCC(C(=O)O)(CC7)C9)C8)c6Cl)c5Cl)n4C)C3)(CC1)C2 [Compound I-1, 4-(2-(2-((2,2′-dichloro-3′-(5-(2-(4-((methoxy-d3)methyl)bicyclo[2.2.1]heptane-1-yl)ethyl)-1-methyl-4,5,6,7-tetrahydro-1H-imidazo[4,5-c]pyridine-2-carboxamido)-[1,1′-biphenyl]-3-yl)carbamoyl)-1-methyl-1,4,6,7-tetrahydro-5H-imidazo[4,5-c]pyridin-5-yl)ethyl)bicyclo[2.2.1]heptane-1-carboxylic acid] |
| 0.37 nM | [2H]c1c([2H])c(NC(=O)c2nc3c(n2C)CCN(CCC24CCC(COC([2H])([2H])[2H])(CC2)C4)C3)c(F)c(-c2c([2H])c([2H])c([2H])c(NC(=O)c3nc4c(n3C)CCN(CCC35CCC(C(=O)O)(CC3)C5)C4)c2Cl)c1[2H] (single isomer, unassigned) [Compound I-14, 4-(2-(2-((2-chloro-2′-fluoro-3′-(5-(2-(4-((methoxy-d3)methyl)bicyclo[2.2.1]heptane-1-y 1)ethyl)-1-methyl-4,5,6,7-tetrahydro-1H-imidazo[4,5-c]pyridine-2-carboxamido)-[1,1′-biphenyl]-3-yl-4,4′,5,5′,6,6′-d6)carbamoyl)-1-methyl-1,4,6,7-tetrahydro-5H-imidazo[4,5-c]pyridin-5-yl)ethyl)bicyclo[2.2.1]heptane-1-carboxylic acid] |
